Earlier results as cited in US20150283066A1, “VAGINAL DANAZOL COMBINED WITH NON STEROIDAL ANTI INFLAMMATORY DRUGS (NSAIDS) COMPOSITIONS” (MEDIGLOBE LTD, priority 2011, published 2015).

Settings: literature (University of Helsinki); stated jointly for NSAIDs and tranexamic acid

NC[C@H]1CC[C@H](C(=O)O)CC1 [tranexamic acid]
reduction of menstrual blood loss: 20-60%
